Test results: patent US5356880A, “Glycyrrhetinic acid derivatives” (priority 1991, dated 1994)
Like-named read-outs stand apart in the source and are kept apart here.

Key:
HSV-1 (Miyama strain) = experiment: In vitro antiviral action on cells infected with HSV-1 (Miyama strain), CPE inhibition, TCID50; format: cell-based, Herpes simplex virus type 1; settings: Human alphaherpesvirus 1, GMK cells, read-out: Antiviral Activity (ΔTCID50)
HSV-1 (KOS strain) = experiment: microbe, parasite or virus in culture; format: cell-based, Herpes simplex virus type 1; settings: Human alphaherpesvirus 1, Vero, read-out: Antiviral Activity (ΔTCID50)
HSV-2 (UW-268 strain) = experiment: microbe, parasite or virus in culture; format: cell-based, Herpes simplex virus type 2; settings: Human alphaherpesvirus 2, Vero, read-out: Antiviral Activity (ΔTCID50)
[1] = tested on: vaccinia viruses (D1E strain); experiment: microbe, parasite or virus in culture; format: cell-based; settings: Orthopoxvirus vaccinia, Vero, read-out: Antiviral Activity (ΔTCID50)
[2] = tested on: influenza viruses (A/PR/8 strain); experiment: microbe, parasite or virus in culture; format: cell-based, influenza virus A/PR/8; settings: unidentified influenza virus, PR/8, MDCK, read-out: Antiviral Activity (ΔTCID50)
[3] = Acute toxicity testing, oral, mice (LD50, Litchfield-Willcoxon); settings: mouse, in vivo, ICR male mice, 7 days observation
Text: The compounds to be tested in the form of a 2% aqueous solution of Tween 80 were orally administrated to ICR male mice (weights: 24-30 g), five for each group.

influenza viruses = settings: in vivo; cited from earlier work

In the case of `COc1ccccc1N1CCN(C(=O)[C@@]2(C)CC[C@]3(C)CC[C@]4(C)C(=CC[C@@H]5[C@@]6(C)CC[C@H](O[C@H]7O[C@H](C(=O)O)[C@@H](O)[C@H](O)[C@H]7O[C@@H]7O[C@H](C(=O)O)[C@@H](O)[C@H](O)[C@H]7O)C(C)(C)[C@@H]6CC[C@]54C)[C@@H]3C2)CC1` [Comp. Ex. 37, 30-(N-2-(4-(2-methoxylphenyl)piperazine-1-yl)carbonyl)-18β-olean-12-en-3β-yl-2-O-β-D-glucuronyl-α-D-gluconic acid], the log reduction at 1 µg/mL (HSV-1 (Miyama strain); 1 μg/ml) is reported as 1.94, the log reduction at 5 µg/mL (HSV-1 (Miyama strain); 5 μg/ml) is reported as > 3.17 and the log reduction at 25 µg/mL (HSV-1 (Miyama strain); 25 μg/ml) is reported as > 3.73. For the same compound, the log reduction at 1 µg/mL (HSV-1 (KOS strain)) was 2.74, the log reduction at 5 µg/mL (HSV-1 (KOS strain)) was 2.65 and the log reduction at 25 µg/mL (HSV-1 (KOS strain)) was > 3.25. The log reduction at 1 µg/mL (HSV-2 (UW-268 strain)) was 1.87, the log reduction at 5 µg/mL (HSV-2 (UW-268 strain)) was 3.01 and the log reduction at 25 µg/mL (HSV-2 (UW-268 strain)) was > 3.85. The log reduction at 1 µg/mL [1] was 1.49, the log reduction at 5 µg/mL [1] was 2.85 and the log reduction at 25 µg/mL [1] was 2.61. The log reduction at 1 µg/mL [2] was 1.64, the log reduction at 5 µg/mL [2] was 1.7 and the log reduction at 25 µg/mL [2] was 2.38. The LD50 at 168 h [3] was > 1000 mg/kg, the magnitude of cytotoxicity (GMK cells; 1 μg/ml) was “-” and the magnitude of cytotoxicity (GMK cells; 5 μg/ml) was “-”. The magnitude of cytotoxicity (GMK cells; 25 μg/ml) was “-” and the magnitude of cytotoxicity (Vero cells) was “-”.
In the case of `N#CNc1nncs1` [LY253963], the “effect on influenza viruses in animal tests” value (influenza viruses) is given as “resistant to influenza viruses in animal tests”.
